In patent US20250066369A1, “BICYCLIC PHTHALAZIN-1(2H)-ONE DERIVATIVES AND RELATED USES” (NodThera Limited, priority 2022, published 2025):

The compounds below were run on IL-1β release upon NLRP3 activation in peripheral blood mononuclear cells (PBMC) (assay: PBMC IC50 determination assay: inhibition of IL-1β release upon NLRP3 activation). Settings: PBMC primed with LPS 3 h, compound 30 min, stimulated with ATP (5 mM) or nigericin (10 μM) 1 h; IL-1β by ELISA (Protocol A) or HTRF (Protocol B).
Format: cell-based
Method: PBMC IC50 determination assay. The compounds of the present disclosure were tested for their inhibitory activity against IL-1β release upon NLRP3 activation in peripheral blood mononuclear cells (PBMC).
Protocol A. PBMC were isolated from buffy coats by density gradient centrifugation on Histopaque-1077 (Sigma, cat no. 10771). Isolated cells were seeded into the wells of a 96-well plate and incubated for 3 h with lipopolysaccharide (LPS). Following medium exchange, the compounds of the present disclosure were added (a single compound per well) and the cells were incubated for 30 min. Next, the cells were stimulated either with ATP (5 mM) or nigericin (10 μM) for 1 h and the cell culture media from the wells were collected for further analysis.
The release of IL-1β into the media was determined by a quantitative detection of IL-1β in the media using an IL-1β enzyme-linked immunosorbent assay (ELISA) Ready-SET-Go!, eBioscience cat. No. 88-7261-88. Briefly, in a first step, high affinity binding plates (Corning, Costar 9018 or NUNC Maxisorp Cat No. 44-2404) were coated overnight at 4° C. with specific capture antibody included in the kit (anti-human IL-1β ref. 14-7018-68). Subsequently, plates were blocked with blocking buffer for 1 h at room temperature (rt) and after washing with a buffer (PBS with 0.05% Tween-20) incubated with protein standard and culture media. After 2 h of incubation at rt, plates were washed and incubated with biotinylated detection antibody included in the kit (anti-human IL-1β Biotin ref 33-7110-68) for 1 h at rt. Plates were washed and incubated with HRP-streptavidin for 30 min at rt and washed again. The signal was developed after addition of 3,3′,5,5′-tetramethylbenzidine-peroxidase (TMB) until colour appeared and the reaction was stopped by 2 M H2SO4. A microplate spectrophotometer (BioTek) was used to detect signals with 450 nm. The detection range of IL-1β ELISA was […].
Protocol B. PBMC were isolated from buffy coats by density gradient centrifugation on Histopaque-1077 (Sigma, cat no. 10771). Isolated cells were seeded into the wells (280,000 cells/well) of a 96-well plate and incubated for 3 h with lipopolysaccharide (LPS, 1 μg/mL diluted 1000× from a 1 mg/mL stock solution). The compounds of the present disclosure were added (a single compound per well) and the cells were incubated for 30 min. Next, the cells were stimulated with ATP (5 mM final concentration diluted 20× from a 100 mM stock solution) for 1 h and the cell culture media from the wells were collected for further analysis.
The release of IL-1β into the media was determined by quantitative detection of IL-1β in the media using HTRF®, CisBio cat. No. 62HIL1BPEH. Briefly, cell culture supernatant were dispensed directly into the assay plate containing antibodies labelled with the HTRF® donor and acceptor. A microplate spectrophotometer (BMG) was used to detect signals at 655 nm and 620 nm. The detection range of IL-1β HTRF® was 39-6500 μg/mL.

Structure (SMILES)	IC50 [µM]
CC(C)c1nn(C2(C(=O)Nc3ncccn3)CC2)c(=O)c2cn(C3CC3)nc12 [Compound 70, 1-(2-Cyclopropyl-7-isopropyl-4-oxo-2,4-dihydro-5H-pyrazolo[3,4-d]pyridazin-5-yl)-N-(pyrimidin-2-yl)cyclopropane-1-carboxamide]	10 to 50

Same assay, conditions: PBMC, PBMC primed with LPS 3 h, compound 30 min, stimulated with ATP (5 mM) or nigericin (10 μM) 1 h; IL-1β by ELISA (Protocol A) or HTRF (Protocol B)

Structure (SMILES)	IC50 [µM]
CC(C)c1nn(CC(=O)Nc2ncccn2)c(=O)c2cc(Br)oc12 [Compound 62, 2-(2-Bromo-7-isopropyl-4-oxofuro[2,3-d]pyridazin-5(4H)-yl)-N-(pyrimidin-2-yl)acetamide]	0.1 to 1
Cc1nn(CC(=O)Nc2ncc(F)cn2)c(=O)c2ccc(C3CC3)nc12 [Compound 35, 2-(2-Cyclopropyl-8-methyl-5-oxo-pyrido[2,3-d]pyridazin-6-yl)-N-(5-fluoropyrimidin-2yl)acetamide]	0.1 to 1
CC(C)c1nn(CC(=O)Nc2ncco2)c(=O)c2sc(C3CC3)cc12 [Compound 76, 2-(2-Cyclopropyl-4-isopropyl-7-oxothieno[2,3-d]pyridazin-6(7H)-yl)-N-(oxazol-2-yl)acetamide]	0.1 to 1
CCc1nn(CC(=O)NC2CC3(COC3)C2)c(=O)c2cn(CC)nc12 [Compound 22, 2-(2,7-Diethyl-4-oxo-pyrazolo[3,4-d]pyridazin-5-yl)-N-(2-oxaspiro[3.3]heptan-6-yl)acetamide]	10 to 50
Cc1cnc(NC(=O)Cn2nc(C(C)C)c3nn(C(C)C)cc3c2=O)nc1 [Compound 63, 2-(2,7-Diisopropyl-4-oxo-pyrazolo[3,4-d]pyridazin-5-yl)-N-(5-methylpyrimidin-2-yl)acetamide]	0.1 to 1
CCc1cc2c(=O)n(CC(=O)Nc3ncc(F)cn3)nc(CC)c2o1 [Compound 55, 2-(2,7-Diethyl-4-oxofuro[2,3-d]pyridazin-5(4H)-yl)-N-(5-fluoropyrimidin-2-yl)acetamide]	0.1 to 1
CC(C)Nc1cc2c(C(C)C)nn(CC(=O)Nc3ncccn3)c(=O)c2s1 [Compound 93, 2-[7-Oxo-4-(propan-2-yl)-2-[(propan-2-yl)amino]-6H,7H-thieno[2,3-d]pyridazin-6-yl]-N-(pyrimidin-2-yl)acetamide]	0.1 to 1
CCOc1cc2c(C(C)C)nn(CC(=O)Nc3ncccn3)c(=O)c2s1 [Compound 107, 2-[2-Ethoxy-7-oxo-4-(propan-2-yl)-6H,7H-thieno[2,3-d]pyridazin-6-yl]-N-(pyrimidin-2-yl)acetamide]	1 to 3
CC(C)c1nn(CC(=O)N[C@@H]2CCCN(C3CC3)C2)c(=O)c2cc(Cl)sc12 [Compound 10, 2-(2-Chloro-7-isopropyl-4-oxo-thieno [2,3-d]pyridazin-5-yl)-N-[(3R)-1-cyclopropyl-3-piperidyl]acetamide]	1 to 3
C=C(C)c1nn(CC(=O)N[C@@H]2CCCN(C3CC3)C2)c(=O)c2ncn(C)c12 [Compound 13, N-[(3R)-1-Cyclopropyl-3-piperidyl]-2-(7-isopropenyl-1-methyl-4-oxo-imidazo[4,5-d]pyridazin-5-yl)acetamide]	10 to 50
CCc1cc2c(=O)n(CC(=O)Nc3ncc(F)cn3)nc(C(C)C)c2s1 [Compound 12, 2-(2-Ethyl-7-isopropyl-4-oxo-thieno[2,3-d]pyridazin-5-yl)-N-(5-fluoropyrimidin-2-yl)acetamide]	0.1 to 1
CCOC(=O)Cc1cnc(NC(=O)Cn2nc(C)c3oc(C4CC4)cc3c2=O)nc1 [Compound 92, Ethyl 2-[2-(2-{2-cyclopropyl-7-methyl-4-oxo-4H,5H-furo[2,3-d]pyridazin-5-yl}acetamido)pyrimidin-5-yl]acetate]	0.1 to 1
CC(C)c1nn(CC(=O)Nc2ncc(F)cn2)c(=O)c2cn(C(C)C)nc12 [Compound 15, 2-(2,7-Diisopropyl-4-oxo-pyrazolo[3,4-d]pyridazin-5-yl)-N-(5-fluoropyrimidin-2-yl)acetamide]	0.1 to 1
CCN(C)c1cc2c(C(C)C)nn(CC(=O)Nc3ncccn3)c(=O)c2s1 [Compound 97, 2-{2-[Ethyl(methyl)amino]-7-oxo-4-(propan-2-yl)-6H,7H-thieno[2,3-d]pyridazin-6-yl}-N-(pyrimidin-2-yl)acetamide]	3 to 10
